From patent US12331135B2, “Anti-tyrosinase antibody for inhibiting tyrosinase and use thereof” (HAUUL BIO, priority 2019, dated 2025) come the findings set out here.

The structures appear in SMILES notation.

Holding throughout (format): cell-based, mouse
In series [1] the test system is B16F10 cells. Briefly: Cytotoxicity test (MTT). Conditions: unit assumed. The method, then: In order to examine cytotoxicity of the TAT-α-tyrosinase scFv antibody, B16F10 cells, mouse-derived malignant melanoma cells, were cultured in a CO2 incubator at 37° C. After the culture, the cells were treated with the TAT-α-tyrosinase scFv antibody at different concentrations (0.1, 1, 5, 10, 50, 100 ppm), and then further cultured under the same culture conditions. After the culture, MTT{3-(4,5-Dimethylthiazol-2-yl)-2,5-Diphenyltetrazolium Bromide} solution was added and cultured. After that, the culture solution was removed, and DMSO (dimethyl sulfoxide) was added and shaken moderately.

Series [2] has as its system B16F10 cells. As to the kind of experiment: Melanin production inhibitory effect test. The note with it: 100 ppm, absorbance 475 nm. The protocol: To determine an inhibitory effect of the TAT-α-tyrosinase scFv antibody on melanin production in cells, B16F10 cell lines were treated with the TAT-α-tyrosinase scFv antibody and then the produced intracellular melanin content was measured. B16F10 cells, which are malignant melanoma cells, were cultured at 37° C. in the CO2 incubator. Thereafter, the cells were treated with 10 ppm of the TAT-α-tyrosinase scFv antibody and 100 ppm of arbutin as a positive control, followed by further culture under the same culture conditions. After the culture, each well was washed with PBS and 130 ul of 1 N NaOH solution was added to dissolve it at 60° C. for 1 hour.

The test system of series [3] is B16F10 cells. As to the kind of experiment: Reactive oxygen species inhibitory effect test. The protocol:
In order to determine the inhibitory effect of the TAT-α-tyrosinase scFv antibody on reactive oxygen species in cells, the B16F10 cell lines were treated with the TAT-α-tyrosinase scFv antibody, and then the content of intracellular reactive oxygen species was measured using fluorescence staining. B16F10 cells, which are malignant melanoma cells, were cultured in the CO2 incubator at 37° C. Thereafter, the cells were treated with 100 ppm of the TAT-α-tyrosinase scFv antibody and 100 ppm of arbutin as a positive control, and then further cultured under the same culture conditions. After the culture, 0.2 mM hydrogen peroxide was added to each well, and then cultured for 2 hours. Carboxy-H2DCF-DA was added and reaction was carried out at 37° C. for 30 minutes. After washing with PBS, fluorescence was measured with the ELISA Reader system at 475/535 nm by re-addition of PBS, and the values are shown in Table 4.

With `OC[C@H]1O[C@@H](Oc2ccc(O)cc2)[C@H](O)[C@@H](O)[C@@H]1O` [Arbutin], the Cell viability (MTT, absorbance at 570 nm), Average in series [1] (0.1 ppm) was 97.6%; in series [1] (1 ppm), 97%; in series [1] (5 ppm), 83.5%; in series [1] (10 ppm) it was 89.3%; in series [1] (50 ppm), 82.4%; in series [1] (100 ppm) it was 57.7%. For the same compound, the “Melanin biosynthesis amount (% of control), Average” value in series [2] is 66.1 % of control. Besides, the “ROS (fold of control), Average” value in series [3] (0.2 mM H2O2, 100 ppm) is recorded as 1.29 fold of control; in series [3] (non treat control (no H2O2), 100 ppm), 0.82 fold of control.
